Measurements: patent publication US10399931B2, “Octahydroanthracene compound, preparation method and application thereof” (SHANDONG XINHUA PHARMACEUTICAL CO., LTD., priority 2016, dated 2019)

What was measured:
[1] = system: Human cutaneous T-cell lymphoma Hut102 cells; assay: MTT assay, proliferation of human cutaneous T-cell lymphoma Hut102 cells; assay type: cell-based; settings: HuT-102, 10 μM, Mean ± SE, read-out: Inhibitive rate (%) against Hut102 cells
Protocol: The survival rate of cells was determined by MTT assay, which is based on the metabolic reduction of 3-(4,5-dimethyl-2thiahiazoyl)-3,5-di-phenyl-tetrazolium bromide (MTT) by viable cells. MTT is a yellow compound, a dye that accepts hydrogen ion, which can act on the respiratory chain in the mitochondria of viable cells. Under the action of succinate dehydrogenase and cytochrome C, the tetrazolium ring was cleaved to form blue Formazan crystals, and the amount of Formazan crystals generated was only proportional to the number of the viable cells. The enzymes disappeared in dead cells, so Formazan crystals could not be dissolved in MTT solution containing 20% sodium dodecyl sulfate (pH 4.7).
The cells in the logarithmic growth phase were selected and adjusted to an appropriate cell density, seeded in a 96-well plate, 100 μl/well, and cultured in a 37° C., 5% CO2 incubator. The cells were allowed to adhere overnight, then the culture medium was replaced and the drug was added to cultivate for 48 h. A blank control group, a drug administration group and a positive control group were set, with four repeats in each group.
After 48 h of drug treatment, the cells were incubated with 0.25 mg/ml MTT at 37° C. for 3-4 h, and 100 μl of dimethyl sulfoxide (DMSO) was added to each well after aspirating the culture solution.

[2] = system: Aβ metabolizing enzymes NEP and IDE; assay: Expression of Aβ metabolizing enzymes in the brain of APP/PS1 mice; assay type: in vivo
Protocol: After the behavioral experiment, the animals were anesthetized with an intraperitoneal injection of 3.5% chloral hydrate and cut off the heads quickly to take out the brains. The hippocampus and cortex of the brain were separated on ice, and then weighed and quickly frozen with liquid nitrogen, placed in a refrigerator at −80° C. for standby application.
The tissue lysate (5 μL PMSF protease inhibitor per mL of lysate) was added to the frozen brain tissue at a ratio of […] (6 mL/g tissue), and ultrasonically homogenized in an ice bath. After homogenization, the tissue homogenate was placed in crushed ice for 30 min, and then centrifuged at 12,000×g for 20 min at 4° C. The supernatant (about 200 μL) was taken and stored in a refrigerator at −80° C. for later use. A portion of the supernatant was taken for protein quantification.
Grayscale scanning of the X film was performed and the results were analyzed by the image analysis software of Quantity One 4.6.2. Differences and changes in the expression of the detected proteins between the groups were determined using β-actin as an internal reference. The relative value was calculated by the formula.

APP/PS1 transgenic mice [3] = assay: Social interaction experiment; assay type: in vivo; settings: 200 mg/kg
Protocol: The social interaction device was composed of a square box (length×width×height: 50 cm×50 cm×15 cm). The behavioral laboratory used diffuse and dim light (25 W) and tried to avoid environmental stress caused by shadows in the experimental area. Before the social interaction experiment, in order to eliminate the influence of unfamiliar environment, each mouse was placed in the experimental device alone to adapt to the environment, 10 min each day for two consecutive days. At the beginning of the test on day 3, the mouse was randomly paired with another strange partner. Two groups of experimental animals were placed in the experimental device at the same time, and the time spent by the mice in the active social interaction behavior was recorded. The test time was 10 min, including sniffing, combing, and scratching or chasing each other. However, passive contact activities (overwhelmed or being ridden by the other mouse, etc.) are not recorded in the social interaction behavior. After each test, 1% bromo geramine was used to disinfect the social interaction device.

APP/PS1 transgenic mice [4] = assay: Nesting experiment; assay type: in vivo
Source text: Each mouse was separately housed in a cage. On the first day of the test, two pieces of cotton (5 cm×5 cm) were placed in the cage. […]

APP/PS1 mice [5] = assay: Transmission electron microscopy of hippocampal CA1 neurons and synapses; assay type: in vivo
APP/PS1 mice [6] = assay: Patch clamp experiment, LTP (synaptic function); assay type: in vivo
[7] = system: APP/PS1 double transgenic AD model mice; assay: Safety observations during repeated administration in the behavioral experiment; assay type: in vivo; settings: for Organ index of heart, liver, spleen and kidney: repeated administration (3 consecutive months)
Protocol: OAB-14 at a doge of 50, 100 and 200 mg/kg were respectively given to APP/PS1 double transgenic AD model mice aged 8 months by continuous intragastric administration for 14 days or 3 months (to 11 months old, equivalent to the middle- and late-aged AD), using donepezil as a positive control.

## CC1(C)CCC(C)(C)c2c1cc1c(c2NC(=O)c2ccc(NC(=O)NCCN)cc2)C(C)(C)CCC1(C)C [OAB-14, 1-(2-amino) ethyl-3-{4-[(1,1,4,4,5,5,8,8-octamethyl-1,2,3,4,5,6,7,8-octahydro-9-anthryl)carbamoyl]phenyl} urea]
[1]
  inhibition at 10 µM: 41.2 ± 1.08%
[2]
  Expression of Aβ metabolizing enzymes NEP and IDE in the brain: increasing the expression
APP/PS1 transgenic mice [3]
  Active contact time vs model group: significantly increased
APP/PS1 transgenic mice [4]; 100 mg/kg, at 12 h
  Nesting ability vs model group: significantly increased
APP/PS1 transgenic mice [4]; 200 mg/kg, at 6 h
  Nesting ability vs model group: significantly increased
APP/PS1 transgenic mice [4]; 200 mg/kg, at 12 h
  Nesting ability vs model group: significantly increased
APP/PS1 transgenic mice [4]; 200 mg/kg, at 24 h
  Nesting ability vs model group: significantly increased
APP/PS1 mice [5]; 100 mg/kg group
  Synaptic ultrastructure of the hippocampus (TEM): significantly improved
APP/PS1 mice [5]; 200 mg/kg group
  Synaptic ultrastructure of the hippocampus (TEM): significantly improved
APP/PS1 mice [5]; dose-dependent, especially 200 mg/kg group
  Ultrastructure of hippocampal CA1 neurons (TEM): significantly improved
APP/PS1 mice [6]; 100 mg/kg group
  LTP: significantly enhanced
APP/PS1 mice [6]; 200 mg/kg group
  LTP: significantly enhanced
[7]; 14 days or 3 months
  Changes in the main organ tissue sections compared with the blank group: no changes were observed
[7]; low, medium and high dose, 3 consecutive months
  General condition of the mice: in good condition
[7]; low, medium and high dose
  Organ index of heart, liver, spleen and kidney: not abnormal
[7]; low, medium and high dose, listed as OAR-14
  Organ index of heart, liver, spleen and kidney: not seen to be abnormal
